# Measurements from patent publication EP4613273A1, “TREATMENT OF BONE LOSS” (priority 2024, dated 2025).
# Counter-ions that a name gives are not always drawn. Like-named read-outs stand apart in the source and are kept apart here.
# Assays:
# Assay type in all cases: in vivo
# CTX-1 = test: Plasma CTX-1 (bone resorption marker) in healthy beagle dogs
# Experimental: (§1) Compound Ib besylate salt (referred to as MIV-701 besylate salt) was administered once daily for 14 days to 3 healthy beagle dogs at three different doses: 1 mg/kg, 10 mg/kg and 100 mg/kg.
# (§2) The doses were consecutively administered for 14 days with a >5-day washout period between two dose levels.
# (§3) Each treatment period can be resumed as follows: • J0 (T+24h): first Compound Ib besylate salt administration, withdrawal of blood samples for pharmacokinetic and plasma CTX-1 assessment (pre-dose and 0.5h, 1h, 2h, 4h, 8h and 24h after drug administration), pre-dose blood samples for hematology and clinical biochemistry (baseline values for safety assessment). • J1 to J12: pre-dose blood samples • J13: last Compound Ib besylate salt administration, withdrawal of plasma samples for pharmacokinetic and plasma CTX-1 assessment (pre-dose and 0.5h, 1h, 2h, 4h, 8h and 24h after drug administration), pre-dose sampling for hematology and clinical biochemistry (baseline values for safety assessment). • J15-J≥19: washout period.
# [1] = Plasma pharmacokinetic of MIV-701 after single and repeated oral administration of MIV-701 besylate salt in healthy beagle dogs; conditions: for Cmax at 312 h / Tmax at 312 h / AUC(0-inf) at 312 h / AUC(0-t) at 312 h / half-life at 312 h / Cmax at 0 h / Tmax at 0 h / AUC(0-inf) / AUC(0-t) / half-life: dog; for AUC(0-inf) at 312 h / AUC(0-inf): read-out: AUC(0-infini) (converted); for AUC(0-t) at 312 h / AUC(0-t): read-out: AUC(0-tfinal) (converted); for half-life at 312 h / half-life: read-out: T1/2 elimination (converted)
# Experimental: as §1, §2, §3
# After centrifugation of blood samples plasma aliquots were stored at -20°C. After thawing on ice, 30 µL of plasma were transferred into 1.5 ml microtube containing 270 µL acetonitrile. Microtubes were then vigorously stirred and then centrifuged (12000 rpm, 10 min, 4°C) and the supernatant was transferred in Matrix tube for LC-MS/MS analysis. Calibration curve (9 points, 3 to 30 000 nM) was obtained by spiking plasma samples from naive dogs with appropriate quantities of Compound Ib.
# (§4) Equipment: LC-MS/MS Acquity I Class-Wevo TQD (Waters®): - Acquity I Class ∘ Column: Waters® Acquity BEH C8, 50*2.1mm, 1.7 µm (40°C) ∘ Mobile phase: • ▪ A: Ammonium Formate 5mM, pH=3.8 • ▪ B: Ammonimuformate 5 mM in CH3CN 5% aqueous, pH=3.8 ∘ Injection volume: 1 µL ∘ Speed: 600 µL/min ∘ Gradient: […]
# - Xevo TQD ∘ Source temperature: 150°C ∘ Desolvatation temperature: 600°C ∘ Cone gaz speed: 50L/h ∘ Desolvatation gaz speed: 1200L/h - Analytes MS characteristics
# Terminal elimination half-life (t1/2) was calculated according to the following formula: T1/2 elimination = ln(2)/kel [formula] kel= slope of ln(C)=f(temps) calculated on the last points of the curves (elimination phase)/ MIV-701 exposure (Area Under the Curve; AUCt) was calculated according to trapezoidal method according to the following formula: AUCt−>inf = [C]t /kel [formula]
# [2] = MIV-701/MIV-06404 plasma exposure ratio in cat; conditions: for MIV-701/MIV-06404 exposure ratio: D13 (repeated); for MIV-701/MIV-06404 ratio: single oral administration (D0), exposure ratio
# Experimental: MIV-701 besylate salt was administered once daily for 14 days to 4 healthy cats at three increasing doses: 2 mg/kg, 10 mg/kg and 50 mg/kg.
# Each treatment period can be resumed as follows: • J0 (T+24h): first administration, withdrawal of blood samples for pharmacokinetic and plasma CTX-1 assessment (pre-dose and 0.5h, 1h, 2h, 4h, 8h and 24h after first drug administration), pre-dose blood samples for hematology and clinical biochemistry (baseline values for safety assessment). • J5 ([…]) and J8: pre-dose blood samples. • J13: last administration, withdrawal of plasma samples for pharmacokinetic and plasma CTX-1 assessment (pre-dose and 0.5h, 1h, 2h, 4h, 8h and 24h after last drug administration), pre-dose sampling for hematology and clinical biochemistry (baseline values for safety assessment). • J15 to J≥19: washout period.
# After centrifugation of blood samples plasma aliquots were stored at -20°C._After thawing on ice, 30 µL of plasma were transferred into 1.5 ml microtube containing 270 µL acetonitrile. Microtubes were then vigorously stirred and then centrifuged (12000 rpm, 10 min, 4°C) and the supernatant was transferred in Matrix tube for LC-MS/MS analysis.
# as §4
# - Xevo TQD • ∘ Source temperature: 150°C • ∘ Desolvatation temperature: 600°C • ∘ Cone gaz speed: 50L/h • ∘ Desolvatation gaz speed: 1200L/h - Analytes MS characteristics
# [3] = plasma MIV-701, oral 1 mg/kg once daily, Day 13 (repeated)
# [4] = plasma MIV-701, oral 1 mg/kg, Day 0 (single)
# [5] = plasma MIV-701, oral 10 mg/kg once daily, Day 13 (repeated)
# [6] = plasma MIV-701, oral 10 mg/kg, Day 0 (single)
# [7] = plasma MIV-701, oral 100 mg/kg once daily, Day 13 (repeated)
# [8] = plasma MIV-701, oral 100 mg/kg, Day 0 (single)
smiles,measurement,setting,value
"CC(C)C[C@H](NC(=O)c1ccc(-c2csc(N3CCN(C)CC3)n2)cc1)C(=O)N1C[C@H](F)[C@H]2OCC(O)(O)[C@H]21 [MIV-701 besylate salt, N-[(S)-1-((3aS,6S,6aS)-6-Fluoro-S-oxo-hexahydro-furo[3,2-b]pyrrole-4-carbony)-3-methyl-butyl]-4-[2-(4-methyl-piperazin-1-yl)-thiazol-4-yl]-benzamide benzenesulphonate]",inhibition of pre-dose plasma CTX-1 vs baseline,"CTX-1; 10 mg/kg once a day, D1 to end of 14 days",40%
same,time of CTX-1 inhibition peak after administration,"CTX-1; D0, three doses tested",8 h
same,pre-dose plasma CTX-1 during repeated administration,"CTX-1; once a day oral, D1 to end of 14 days",dose-dependent inhibition
same,CTX-1 plasma concentration 24 hours after administration,CTX-1; single dose 10mg/kg and 100 mg/kg,did not go back to pre-dose concentration
same,effect on plasma CTX-1,"CTX-1; single oral administration (D0) at 1 mg, 10 mg and 100 mg",dose-dependent effect
same,"plasma accumulation of MIV-701 (Cmax, AUCs D13 vs D0)","[1]; 14-day repeated oral administration, three doses",did not show plasma accumulation
same,Cmax at 312 h,[1]; [3],6.6 nM
same,Tmax at 312 h,[1]; [3],2 h
same,AUC(0-inf) at 312 h,[1]; [3],0.083 µM·h
same,AUC(0-t) at 312 h,[1]; [3],0.036 µM·h
same,half-life at 312 h,[1]; [3],8.6 h
same,Cmax at 0 h,[1]; [4],20 nM
same,Tmax at 0 h,[1]; [4],0.5 h
same,AUC(0-inf),[1]; [4],0.0488 µM·h
same,AUC(0-t),[1]; [4],0.0429 µM·h
same,half-life,[1]; [4],2.9 h
same,Cmax at 312 h,[1]; [5],130 nM
same,Tmax at 312 h,[1]; [5],4 h
same,AUC(0-inf) at 312 h,[1]; [5],1.91 µM·h
same,AUC(0-t) at 312 h,[1]; [5],1.84 µM·h
same,half-life at 312 h,[1]; [5],4.9 h
same,Cmax at 0 h,[1]; [6],139 nM
same,Tmax at 0 h,[1]; [6],1 h
same,AUC(0-inf),[1]; [6],1.38 µM·h
same,AUC(0-t),[1]; [6],1.35 µM·h
same,half-life,[1]; [6],4.1 h
same,Cmax at 312 h,[1]; [7],1620 nM
same,Tmax at 312 h,[1]; [7],1 h
same,AUC(0-inf) at 312 h,[1]; [7],21.4 µM·h
same,AUC(0-t) at 312 h,[1]; [7],20.7 µM·h
same,half-life at 312 h,[1]; [7],4.8 h
same,Cmax at 0 h,[1]; [8],1280 nM
same,Tmax at 0 h,[1]; [8],8 h
same,AUC(0-inf),[1]; [8],19.9 µM·h
same,AUC(0-t),[1]; [8],19.4 µM·h
same,half-life,[1]; [8],4 h
same,Kel (2-8h),[1]; [3],-0.080 h⁻¹
same,Kel (2-8h),[1]; [4],-0.236 h⁻¹
same,Kel (4-24h),[1]; [5],-0.142 h⁻¹
same,Kel (8-24h),[1]; [6],-0.167 h⁻¹
same,Kel (4-24h),[1]; [7],-0.144 h⁻¹
same,Kel (8-24h),[1]; [8],-0.174 h⁻¹
same,MIV-701/MIV-06404 exposure ratio,[2]; 2 mg/kg,5.0
same,MIV-701/MIV-06404 exposure ratio,[2]; 10 mg/kg,3.4
same,MIV-701/MIV-06404 ratio,[2]; 2 mg/kg,6.9
same,MIV-701/MIV-06404 ratio,[2]; 10 mg/kg,6.2
same,MIV-701/MIV-06404 ratio,[2]; 50 mg/kg,3.9
